IC50 data for three compounds are collected here from ChEMBL document CHEMBL1145364, “A novel artemisinin-quinine hybrid with potent antimalarial activity” (Bioorg Med Chem Lett, 2007).

What all share (assay type): functional, organism-based
Assay [1] concerns Plasmodium falciparum. The assay is described as follows: Antimalarial activity against chloroquine-resistant Plasmodium falciparum FcB1 after 48 hrs by pLDH assay. To be noted: FcB1, 48 h.
For assay [2], the system named is Plasmodium falciparum. The experiment in a line: Antimalarial activity against chloroquine-resistant Plasmodium falciparum FcB1 after 72 hrs by pLDH assay. To be noted: FcB1, 72 h.
For assay [3], the system named is Plasmodium falciparum. The assay is described as follows: Antimalarial activity against Plasmodium falciparum 3D7 after 72 hrs by pLDH assay. The conditions noted are these: 3D7, 72 h.
Assay [4] has as its system Plasmodium falciparum. The assay is described as follows: Antimalarial activity against Plasmodium falciparum 3D7 after 48 hrs by pLDH assay. The conditions noted are these: 3D7, 48 h.

For orientation: IC50 means the concentration needed to halve the response being measured. Higher therefore signals a need for much substance. For `COc1ccc2nccc([C@@H](O)C3CC4CCN3CC4CC(=O)O[C@@H]3OC4O[C@]5(C)CCC6[C@H](C)CCC([C@H]3C)[C@@]46OO5)c2c1` (some centres not stated), the IC50 in the assay with Plasmodium falciparum [1] worked out at 9.59 nM; with Plasmodium falciparum [2] it was 10.2 nM; in the assay on Plasmodium falciparum [3], 10.4 nM; in the assay on Plasmodium falciparum [4] it was 8.95 nM.

`C[C@@H]1CC[C@H]2[C@@H](C)C(=O)O[C@@H]3O[C@@]4(C)CC[C@@H]1[C@]32OO4` [ARTEMISININ]: the half-inhibitory concentration (IC50) in the assay with Plasmodium falciparum [1] stood at 50 nM; in the assay on Plasmodium falciparum [2], 55 nM; with Plasmodium falciparum [3], 45.5 nM; in the assay on Plasmodium falciparum [4], 49.4 nM.

For the compound `C=C[C@H]1CN2CC[C@H]1C[C@H]2[C@H](O)c1ccnc2ccc(OC)cc12` [QUININE], the IC50 with Plasmodium falciparum [1] stood at 96.8 nM; in the assay with Plasmodium falciparum [2], 75.3 nM; in the assay on Plasmodium falciparum [3], 73.5 nM; in the assay with Plasmodium falciparum [4] it was 149 nM.
